Reference: BindingDB's records for doi:10.1111/j.1432-1033.1991.tb16455.x (Georg-August-University, 1991)
Square brackets hold non-standard residues; d marks the D form. Peptide text beside a SMILES is read from it. ξ: configuration not given here. Ile(3ξ) = CCC(C)[C@H](N)C(=O)O

Each compound was assayed against T1, Pituitary adenylate cyclase-activating polypeptide (Rattus norvegicus, UniProt P13589).
T1 sequence (P13589 whole entry): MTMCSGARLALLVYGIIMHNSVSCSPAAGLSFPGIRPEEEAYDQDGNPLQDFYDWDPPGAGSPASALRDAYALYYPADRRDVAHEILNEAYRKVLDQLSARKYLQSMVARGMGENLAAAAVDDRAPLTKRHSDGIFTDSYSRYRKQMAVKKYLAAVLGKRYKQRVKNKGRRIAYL

| Compound | Ki [nM] |
| --- | --- |
| Nc1nc2c(ncn2[C@@H]2O[C@H](COP(=O)(O)OP(=O)(O)OP(=O)(O)O)C(O)C2O)c(=O)[nH]1 (stereo partly specified) [+ 1 mM GTP] | 600 |
| CC[C@H](C)[C@H](NC(=O)[C@H](CO)NC(=O)[C@H](CC(N)=O)NC(=O)[C@H](CC(C)C)NC(=O)[C@H](Cc1ccc(O)cc1)NC(=O)[C@H](CCCCN)NC(=O)[C@H](CCCCN)NC(=O)[C@@H](NC(=O)[C@H](C)NC(=O)[C@H](CCSC)NC(=O)[C@H](CCC(N)=O)NC(=O)[C@H](CCCCN)NC(=O)[C@H](CCCN=C(N)N)NC(=O)[C@H](CC(C)C)NC(=O)[C@H](CCCN=C(N)N)NC(=O)[C@@H](NC(=O)[C@H](Cc1ccc(O)cc1)NC(=O)[C@H](CC(N)=O)NC(=O)[C@H](CC(=O)O)NC(=O)[C@@H](NC(=O)[C@H](Cc1ccccc1)NC(=O)[C@@H](NC(=O)[C@H](C)NC(=O)[C@H](CC(=O)O)NC(=O)[C@H](CO)NC(=O)[C@@H](N)Cc1cnc[nH]1)C(C)C)[C@@H](C)O)[C@@H](C)O)C(C)C)C(=O)N[C@@H](CC(C)C)C(=O)N[C@@H](CC(N)=O)C(=O)O [CAS_37221-79-7] | 1000 |
| Nc1nc2c(ncn2C2OC(COP(=O)(O)OP(=O)(O)OP(=O)(O)S)C(O)C2O)c(=O)[nH]1 (stereo unspecified) [CAS_444121] | 40 |
| Nc1nc2c(ncn2[C@H]2O[C@@H](COP(=O)(O)O)[C@H](O)[C@@H]2O)c(=O)[nH]1 [NSC_6804] | > 10000 |
| Nc1nc2c(ncn2C2OC(COP(O)(=S)OP(=O)(O)O)C(O)C2O)c(=O)[nH]1 (stereo unspecified) [NSC_196042] | 340 |
| CC[C@H](C)[C@H](NC(=O)CNC(=O)[C@H](CC(=O)O)NC(=O)[C@H](CO)NC(=O)[C@@H](N)Cc1cnc[nH]1)C(=O)N[C@@H](Cc1ccccc1)C(=O)N[C@H](C(=O)N[C@@H](CC(=O)O)C(=O)N[C@@H](CO)C(=O)N[C@@H](Cc1ccc(O)cc1)C(=O)N[C@@H](CO)C(=O)N[C@@H](CCCN=C(N)N)C(=O)N[C@@H](Cc1ccc(O)cc1)C(=O)N[C@@H](CCCN=C(N)N)C(=O)N[C@@H](CCCCN)C(=O)N[C@@H](CCC(N)=O)C(=O)N[C@@H](CCSC)C(=O)N[C@@H](C)C(=O)N[C@H](C(=O)N[C@@H](CCCCN)C(=O)N[C@@H](CCCCN)C(=O)N[C@@H](Cc1ccc(O)cc1)C(=O)N[C@@H](CC(C)C)C(N)=O)C(C)C)[C@@H](C)O [PACAP(1-23)] | 1000 |
| CC[C@H](C)[C@H](NC(=O)CNC(=O)[C@H](CCC(=O)O)NC(=O)[C@H](CO)NC(=O)[C@@H](N)Cc1cnc[nH]1)C(=O)N[C@@H](Cc1ccccc1)C(=O)N[C@H](C(=O)N[C@@H](CC(=O)O)C(=O)N[C@@H](CO)C(=O)N[C@@H](Cc1ccc(O)cc1)C(=O)N[C@@H](CO)C(=O)N[C@@H](CCCNC(=N)N)C(=O)N[C@@H](Cc1ccc(O)cc1)C(=O)N[C@@H](CCCNC(=N)N)C(=O)N[C@@H](CCCCN)C(=O)N[C@@H](CCC(N)=O)C(=O)N[C@@H](CCSC)C(=O)N[C@@H](C)C(=O)N[C@H](C(=O)N[C@@H](CCCCN)C(=O)N[C@@H](CCCCN)C(=O)N[C@@H](Cc1ccc(O)cc1)C(=O)N[C@@H](CC(C)C)C(=O)N[C@@H](C)C(=O)N[C@@H](C)C(=O)N[C@H](C(=O)N[C@@H](CC(C)C)C(N)=O)C(C)C)C(C)C)[C@@H](C)O [PACAP(1-27)] | 4.7 |
| CCC(C)[C@H](NC(=O)CNC(=O)[C@H](CC(=O)O)NC(=O)[C@H](CO)NC(=O)[C@@H](N)Cc1cnc[nH]1)C(=O)N[C@@H](Cc1ccccc1)C(=O)N[C@H](C(=O)N[C@@H](CC(=O)O)C(=O)N[C@@H](CO)C(=O)N[C@@H](Cc1ccc(O)cc1)C(=O)N[C@@H](CO)C(=O)N[C@@H](CCCN=C(N)N)C(=O)N[C@@H](Cc1ccc(O)cc1)C(=O)N[C@@H](CCCN=C(N)N)C(=O)N[C@@H](CCCCN)C(=O)N[C@@H](CCC(N)=O)C(=O)N[C@@H](CCSC)C(=O)N[C@@H](C)C(=O)N[C@H](C(=O)N[C@@H](CCCCN)C(=O)N[C@@H](CCCCN)C(=O)N[C@@H](Cc1ccc(O)cc1)C(=O)N[C@@H](CC(C)C)C(=O)N[C@@H](C)C(=O)N[C@@H](C)C(=O)N[C@H](C(=O)N[C@@H](CC(C)C)C(=O)NCC(=O)N[C@@H](CCCCN)C(=O)N[C@@H](CCCN=C(N)N)C(=O)N[C@@H](Cc1ccc(O)cc1)C(=O)N[C@@H](CCCCN)C(=O)N[C@@H](CCC(N)=O)C(=O)N[C@@H](CS)C(N)=O)C(C)C)C(C)C)[C@@H](C)O (stereo partly specified) [PACAP(1-33,Cys34)] | 6.4 |
| CCC(C)[C@H](NC(=O)CNC(=O)[C@@H](N)CC(=O)O)C(=O)N[C@@H](Cc1ccccc1)C(=O)N[C@H](C(=O)N[C@@H](CC(=O)O)C(=O)N[C@@H](CO)C(=O)N[C@@H](Cc1ccc(O)cc1)C(=O)N[C@@H](CO)C(=O)N[C@@H](CCCN=C(N)N)C(=O)N[C@@H](Cc1ccc(O)cc1)C(=O)N[C@@H](CCCN=C(N)N)C(=O)N[C@@H](CCCCN)C(=O)N[C@@H](CCC(N)=O)C(=O)N[C@@H](CCSC)C(=O)N[C@@H](C)C(=O)N[C@H](C(=O)N[C@@H](CCCCN)C(=O)N[C@@H](CCCCN)C(=O)N[C@@H](Cc1ccc(O)cc1)C(=O)N[C@@H](CC(C)C)C(=O)N[C@@H](C)C(=O)N[C@@H](C)C(N)=O)C(C)C)[C@@H](C)O (stereo partly specified) [PACAP(3-25)] (H-DG[Ile(3ξ)]FTDSYSRYRKQMAVKKYLAA-NH2) | 1000 |
| CC[C@H](C)[C@H](NC(=O)CNC(=O)[C@H](CC(=O)O)NC(=O)[C@H](CO)NC(=O)[C@@H](N)Cc1cnc[nH]1)C(=O)N[C@@H](Cc1ccccc1)C(=O)N[C@H](C(=O)N[C@@H](CC(=O)O)C(=O)N[C@@H](CO)C(=O)N[C@@H](Cc1ccc(O)cc1)C(=O)N[C@@H](CO)C(=O)N[C@@H](CCCNC(=N)N)C(=O)N[C@@H](Cc1ccc(O)cc1)C(=O)N[C@@H](CCCNC(=N)N)C(=O)N[C@@H](CCCCN)C(=O)N[C@@H](CCC(N)=O)C(=O)N[C@@H](CCSC)C(=O)N[C@@H](C)C(=O)N[C@H](C(=O)N[C@@H](CCCCN)C(=O)N[C@@H](CCCCN)C(=O)N[C@@H](Cc1ccc(O)cc1)C(=O)N[C@@H](CC(C)C)C(=O)N[C@@H](C)C(=O)N[C@@H](C)C(=O)N[C@H](C(=O)N[C@@H](CC(C)C)C(=O)NCC(=O)N[C@@H](CCCCN)C(=O)N[C@@H](CCCNC(=N)N)C(=O)N[C@@H](Cc1ccc(O)cc1)C(=O)N[C@@H](CCCCN)C(=O)N[C@@H](CCC(N)=O)C(=O)N[C@@H](CCCNC(=N)N)C(=O)N[C@H](C(=O)N[C@@H](CCCCN)C(=O)N[C@@H](CC(N)=O)C(=O)N[C@@H](CCCCN)C(N)=O)C(C)C)C(C)C)C(C)C)[C@@H](C)O [PACAP] | 1.9 |
| H-HSDGIFTDSYSRYRKQMAVKKYLNSILN-NH2 [PACAP(1-23),VIP(24-28)] | 3.1 |
